Structures are written as SMILES. Some results are limits rather than exact numbers.

The target in the assay is T1, IL-17A/A (Homo sapiens, UniProt Q16552).
T1 construct: purchased Genscript Z03228
T1 sequence (Q16552 24-155): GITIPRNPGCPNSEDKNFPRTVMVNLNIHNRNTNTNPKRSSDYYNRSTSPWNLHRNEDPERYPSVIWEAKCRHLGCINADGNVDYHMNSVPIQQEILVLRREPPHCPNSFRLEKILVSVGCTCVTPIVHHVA
The assay can be described thus: IL-17A/A HEK-Blue cell assay. In kind it is cell-based. The conditions noted are these: HEK-Blue IL-17A reporter cell line (HEK 293), IL-17A/A stimulation, 20 hours incubation, SEAP read at A630. How it is done:
The HEK-Blue IL-17A reporter cell line (Fisher #NC1408637) was used for cell-based IL-17A/A inhibition assays. Cells were grown and prepared for assays according to the manufacturer's instructions. This cell line consists of HEK 293 cells that were designed to expressed IL-17RA, IL-17RC, and the ActI adapter molecule, the combination of which, when stimulated by IL-17A/A activates a NFκB promoter and drives expression of a recombinant Secreted Alkaline Phosphatase (SEAP) gene protein. Media from the cells is then added to a development reagent (Quanti-Blue Substrate, Fisher #NC9711613), and read at A630.
Compounds were titrated in DMSO, with a top final compound concentration of 10 uM, 1 uM, or 0.3 uM, and added to the cells immediately before adding IL-17A/A (Genscript #Z03228). The cells, compound, and IL-17A/A were then incubated for 20 hours before media was removed for SEAP analysis. The resulting inhibition curve was then analyzed using Graphpad Prism 7.0, and IC50 values were determined using a 4-parameter nonlinear fit. DMSO was added to a universal final concentration of 0.1% to optimize background.
In the case of `CCn1nccc1C(=O)NC(c1cn2nc(CC3CC(F)(F)CNC3=O)ccc2n1)C1CCCC(F)(F)C1` (mixture of isomers) [Compound 32, N-((6-((5,5-difluoro-2-oxopiperidin-3-yl)methyl)imidazo[1,2-b]pyridazin-2-yl)(3,3-difluorocyclohexyl)methyl)-1-ethyl-1H-pyrazole-5-carboxamide], the IC50 is 100 to 1000 nM.

As for `CCn1nccc1C(=O)N[C@H](c1cn2nc(CC3CC(C)(F)CNC3=O)ccc2n1)C(C1CC1)C1CC1` (mixture of isomers) [Compound 40, N-((1S)-2,2-dicyclopropyl-1-(6-((5-fluoro-5-methyl-2-oxopiperidin-3-yl)methyl)imidazo[1,2-b]pyridazin-2-yl)ethyl)-1-ethyl-1H-pyrazole-5-carboxamide], the IC50 was over 1000 nM.

For `CCn1nccc1C(=O)N[C@H](c1cn2nc(CC3CC(C(F)F)CNC3=O)ccc2n1)C(C1CC1)C1CC1` (mixture of isomers) [Compound 41, N-((1S)-2,2-dicyclopropyl-1-(6-((5-(difluoromethyl)-2-oxopiperidin-3-yl)methyl)imidazo[1,2-b]pyridazin-2-yl)ethyl)-1-ethyl-1H-pyrazole-5-carboxamide], the IC50 is over 1000 nM.

Take `CCn1nccc1C(=O)N[C@H](c1cn2ncc(CC3CCCNC3=O)cc2n1)C1CCCCCC1` (mixture of isomers) [Compound 206, N-((1S)-cycloheptyl(7-((2-oxopiperidin-3-yl)methyl)imidazo[1,2-b]pyridazin-2-yl)methyl)-1-ethyl-1H-pyrazole-5-carboxamide]: the IC50 is over 1000 nM.

In the case of `CCn1nccc1C(=O)N[C@H](c1cn2ncc(CC3C[C@@H](C(F)(F)F)NC3=O)cc2n1)C1CCCCCC1` (mixture of isomers) [Compound 207, N-((l S)-cycloheptyl(7-(((5S)-2-oxo-5-(trifluoromethyl)pyrrolidin-3-yl)methyl)imidazo[1,2-b]pyridazin-2-yl)methyl)-1-ethyl-1H-pyrazole-5-carboxamide], the IC50 was under 100 nM.

With `CCn1nccc1C(=O)N[C@H](c1cn2nc(CC3CCNC3=O)ccc2n1)C1CCC(F)(F)CC1` (single isomer, unassigned) [Compound 1], the IC50 is over 1000 nM.

As for `CCn1nccc1C(=O)N[C@H](c1cn2nc(CC3CCNC3=O)ccc2n1)C1CCCCCC1` (single isomer, unassigned) [Compound 4], the IC50 was in the range of 100 to 1000 nM.

Turning to `CCn1nccc1C(=O)N[C@H](c1cn2nc(CC3C[C@@H](C(F)(F)F)NC3=O)ccc2n1)C1CCCCCC1` (single isomer, unassigned) [Compound 5], the IC50 is under 100 nM.

In the case of `CCn1nccc1C(=O)N[C@H](c1cn2nc(CC3C[C@@H](C(F)(F)F)NC3=O)ccc2n1)C1CCCCCC1` (single isomer, unassigned) [Compound 6], the IC50 is over 1000 nM.

Consider `CCn1nccc1C(=O)N[C@H](c1cn2nc(CC3C[C@@H](C(F)(F)F)NC3=O)ccc2n1)C(C1CC1)C1CC1` (single isomer, unassigned) [Compound 8], for which the IC50 lay within 100 to 1000 nM.

Consider `CCn1nccc1C(=O)N[C@H](c1cn2nc(CC3CC(F)(F)CNC3=O)ccc2n1)C1CCCCCC1` (single isomer, unassigned) [Compound 9, N-((1 S)-cycloheptyl(6-((5,5-difluoro-2-oxopiperidin-3-yl)methyl)imidazo[1,2-b]pyridazin-2-yl)methyl)-1-ethyl-1H-pyrazole-5-carboxamide], for which the IC50 was under 100 nM.

Regarding `CCn1nccc1C(=O)N[C@H](c1cn2nc(CC3CC(F)(F)CNC3=O)ccc2n1)C1CCCCCC1` (single isomer, unassigned) [Compound 10, N-((1 S)-cycloheptyl(6-((5,5-difluoro-2-oxopiperidin-3-yl)methyl)imidazo[1,2-b]pyridazin-2-yl)methyl)-1-ethyl-1H-pyrazole-5-carboxamide], the IC50 fell in the range of 100 to 1000 nM.

As to `CCn1nccc1C(=O)N[C@H](c1cn2nc(CC3CCCNC3=O)ccc2n1)C1CCCCCC1` (single isomer, unassigned) [Compound 11], the IC50 is over 1000 nM.

Take `CCn1nccc1C(=O)N[C@H](c1cn2nc(CC3CCCNC3=O)ccc2n1)C1CCCCCC1` (single isomer, unassigned) [Compound 12]: the IC50 is under 100 nM.

On to `CCn1nccc1C(=O)N[C@H](c1cn2nc(CC3CCCNC3=O)ccc2n1)C1CCC(F)(F)CC1` (single isomer, unassigned) [Compound 13, N-((1 S)-(4,4-difluorocyclohexyl)(6-((2-oxopiperidin-3-yl)methyl)imidazo[1,2-b]pyridazin-2-yl)methyl)-1-ethyl-1H-pyrazole-5-carboxamide], for which the concentration for half-maximal inhibition (IC50) fell in the range of 100 to 1000 nM.

Turning to `Cc1nonc1C(=O)N[C@H](c1cn2nc(CC3CCNC3=O)ccc2n1)C1CCCCCC1` (single isomer, unassigned) [Compound 14, N-((1 S)-cycloheptyl(6-((2-oxopyrrolidin-3-yl)methyl)imidazo[1,2-b]pyridazin-2-yl)methyl)-4-methyl-1,2,5-oxadiazole-3-carboxamide], the IC50 lay in the range of 100 to 1000 nM.

For the compound `CCn1nccc1C(=O)N[C@H](c1cn2nc(CC3C[C@@H](C(F)(F)F)NC3=O)ccc2n1)C(C1CC1)C1CC1` (single isomer, unassigned) [Compound 15], the IC50 was over 1000 nM.

On to `CCn1nccc1C(=O)N[C@H](c1cn2nc(CC3C[C@@H](C(F)(F)F)NC3=O)ccc2n1)[C@H]1CC[C@H](C)CC1` (single isomer, unassigned) [Compound 16], for which the IC50 lay within 100 to 1000 nM.

Take `O=C(N[C@H](c1cn2nc(C[C@H]3C[C@@H](C(F)(F)F)NC3=O)ccc2n1)C1CCC(F)(F)CC1)c1nonc1C1CC1` (single isomer, unassigned) [Compound 19]: the IC50 lay in the range of 100 to 1000 nM.

With `CCn1nccc1C(=O)N[C@H](c1cn2nc(CC3C[C@H](C(F)(F)F)NC3=O)ccc2n1)C1CCC(F)(F)CC1` (single isomer, unassigned) [Compound 23], the IC50 was over 1000 nM.

Turning to `CCn1nccc1C(=O)N[C@H](c1cn2nc(CC3CC(F)(F)CNC3=O)ccc2n1)C1CCC(F)(F)CC1` (single isomer, unassigned) [Compound 24], the IC50 is over 1000 nM.

On to `CCn1nccc1C(=O)N[C@H](c1cn2nc(CC3CC(F)(F)CNC3=O)ccc2n1)C1CCC(F)(F)CC1` (single isomer, unassigned) [Compound 25], for which the IC50 lay in the range of 100 to 1000 nM.

Regarding `CCn1nccc1C(=O)NC(c1cn2nc(CC3CC(F)(F)CNC3=O)ccc2n1)C1CCC(C)CC1` (single isomer, unassigned) [Compound 26], the IC50 lay within 100 to 1000 nM.

For the compound `CCn1nccc1C(=O)NC(c1cn2nc(CC3CC(F)(F)CNC3=O)ccc2n1)C1CCC(C)CC1` (single isomer, unassigned) [Compound 27], the IC50 lay within 100 to 1000 nM.

On to `CCn1nccc1C(=O)N[C@H](c1cn2nc(CC3CC(F)(F)CNC3=O)ccc2n1)C(C1CC1)C1CC1` (single isomer, unassigned) [Compound 28], for which the IC50 is 100 to 1000 nM.

Take `CCn1nccc1C(=O)N[C@H](c1cn2nc(CC3CC(F)(F)CNC3=O)ccc2n1)C(C1CC1)C1CC1` (single isomer, unassigned) [Compound 29]: the concentration for half-maximal inhibition (IC50) is over 1000 nM.

In the case of `CC[C@@H](c1ccc(F)cc1)C(NC(=O)c1ccnn1CC)c1cn2nc(CC3CC(F)(F)CNC3=O)ccc2n1` (single isomer, unassigned) [Compound 30], the IC50 lay within 100 to 1000 nM.

In the case of `CC[C@@H](c1ccc(F)cc1)C(NC(=O)c1ccnn1CC)c1cn2nc(CC3CC(F)(F)CNC3=O)ccc2n1` (single isomer, unassigned) [Compound 31], the IC50 fell in the range of 100 to 1000 nM.

As to `CCn1nccc1C(=O)N[C@H](c1cn2nc(C[C@@H]3CCCNC3=O)ccc2n1)C(C1CC1)C1CC1` (single isomer, unassigned) [Compound 33], the IC50 was 100 to 1000 nM.

For the compound `CCn1nccc1C(=O)N[C@H](c1cn2nc(C[C@H]3CCCNC3=O)ccc2n1)C(C1CC1)C1CC1` (single isomer, unassigned) [Compound 34], the IC50 is over 1000 nM.

As for `CCn1nccc1C(=O)N[C@H](c1cn2nc(CC3CCC(C(F)(F)F)NC3=O)ccc2n1)C(C1CC1)C1CC1` (single isomer, unassigned) [Compound 42], the IC50 was over 1000 nM.

`CCn1nccc1C(=O)N[C@H](c1cn2nc(CC3CCC(C(F)(F)F)NC3=O)ccc2n1)C(C1CC1)C1CC1` (single isomer, unassigned) [Compound 43]: the IC50 is over 1000 nM.

As to `CCn1nccc1C(=O)N[C@H](c1cn2nc(CC3C(=O)NCC3C(F)(F)F)ccc2n1)C(C1CC1)C1CC1` (single isomer, unassigned) [Compound 44], the half-inhibitory concentration (IC50) was in the range of 100 to 1000 nM.

Regarding `CCn1nccc1C(=O)N[C@H](c1cn2nc(CC3C(=O)NCC3C(F)(F)F)ccc2n1)C(C1CC1)C1CC1` (single isomer, unassigned) [Compound 45], the IC50 was over 1000 nM.

Turning to `CCn1nccc1C(=O)N[C@H](c1cn2nc(CC3C(=O)NCC3C(F)(F)F)ccc2n1)C(C1CC1)C1CC1` (single isomer, unassigned) [Compound 46], the IC50 was over 1000 nM.

Consider `CCn1nccc1C(=O)NC(c1cn2nc(CC3C(=O)NCC4CC43)ccc2n1)C1CCC(C)CC1` (single isomer, unassigned) [Compound 47], for which the IC50 is over 1000 nM.

Values taken from patent US20250346602A1, “LACTAM SUBSTITUTED IMIDAZOPYRIDAZINE IL-17A MODULATORS AND USES THEREOF” (DICE ALPHA, INC., priority 2022, published 2025).
